From US9169241B2, “Quinolinyloxyphenylsulfonamides” (Max-Planck-Gesellschaft Zur Forderung der Wissenschaften …, priority 2009, dated 2015)
Where two headings read alike, the source gives them in different places.

Key:
tumor cell = assay: Matrigel outgrowth assay/branching assay (Table Va); assay type: cell-based
Protocol: The Matrigel outgrowth assay is based on the ability of tumor cell to penetrate a solid gel of extracellular matrix proteins mimicking the metastasis formation in vivo. While cells with low invasive potential appear as roundish cell or cell cluster, cells with high invasive potential penetrate the Matrigel and form polymorphic structures. In detail 65 μl of Matrigel matrix (Matrigel™ Matrix, BD Biosciences, Bedford, Mass., USA) with a concentration of 3 mg/ml have been polymerized in 96 well plates for 1 h at 37° C. Subsequently 5000 cell/well were seeded into each well containing cell culture medium and indicated compound with concentrations of 3.125 μM, 1.56 μM and 0.78 μM as well as DMSO control. After 48 h, 72 h and 96 h images of cell were taken on an inverted microscope using a 5× objective (Zeiss Axiovert S100 microscope Carl Zeiss UK, Welwyn Garden City, UK). Only compound concentrations were total branching inhibition was evident were accounted as positive. Method was used as previously described, with some modifications (Thompson E W, et al. Association of increased basement membrane invasiveness with absence of estrogen receptor and expression of vimentin in human breast cancer cell lines. J Cell Physiol 1992; 150:534-44).

indicated cell line = assay: Wound healing migration assay (Table IV); assay type: cell-based; settings: compounds at 12.5, 6.25, 3.125 μM, 48 h-72 h
Protocol: This method mimics cell migration during wound healing in vivo. The basic steps involve creating a “wound” in a cell monolayer, capturing the images at the beginning and at regular intervals during cell migration to close the wound, and comparing the images to quantify the migration rate of the cells. In detail, 150000 cell/24 well have been seeded and allowed to form a monolayer overnight. Subsequently a “wound” or “scratch” has been performed with a 1000 μl pipette tip. The STDV of wound size is normally below 10% at time point t0. The assay was stopped by fixation with 0.05% Crystal violet/20% methanol when control scratches were closed. The assay was terminated between 48 h and 72 h depending on the migration potential of the indicated cell line. The “wounds” were visualized with a Zeiss Axiovert S100 microscope (Carl Zeiss UK, Welwyn Garden City, UK). The tested compounds were used at 12.5 μM, 6.25, 3.125 μM and DMSO control. IC50 values have been calculated as 50% wound size in between t0 and t48 or t72.

viable cells in culture = assay: Cell viability assay at 10 μM (CellTiter-Glo, Table VII); assay type: cell-based; settings: compound 10 μM, 72 h;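 further: graded A 0-20%; B 21-40%; C 41-60%; D over 60% viable cells relative to DMSO control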
Protocol: The CellTiter-Glo® Luminescent Cell Viability Assay (Promega Corporation. Madison, Wis., USA) is method a determining the number of viable cells in culture based on quantification of the ATP being present which is an indicator of metabolically active cells was used according to manufacturers protocol. In detail the assay was performed in a 96 well format were 1000 cells/well were incubated with compound at concentration 10 μM as well as DMSO control for 72 h in 100 μl cell culture medium. Percentage of inhibition was calculated compared to ATP amount of DMSO control.

cells = assay: Boyden chamber migration assay (Table VI); assay type: cell-based; settings: Homo sapiens, Hs-578T, 16 h, Hs578T cells; 16 h migration
Protocol: The Boyden chamber assay is based on a chamber of two medium-filled compartments separated by a microporous membrane of 8 μM (Cell culture insert 8.0 μM pore size, BD Biosciences, Bedford, Mass.). The boyden chamber migration assays were carried out according to the supplier's instructions. In general, 20000 cells are placed in the upper compartment with medium containing 0% FCS plus 0.1% BSA and are allowed to migrate 16 h through the pores of the membrane into the lower compartment, which is filled with cell culture medium containing 10% FCS as chemotactic agents. The cells remaining in the insert were removed with a cotton swab, and the cells on the bottom of the filter were fixed and counted. (Zhang Y X, et al. AXL is a potential target for therapeutic intervention in breast cancer progression. Cancer Res. 2008; 68:1905-15).

SF763 = assay: Apoptosis assay (Cellomics, nucleus condensation); assay type: cell-based; settings: Table III, read-out: Apoptosis induction in SF763
Description: (§1) The Cellomics BioApplication (Thermo Fischer Cellomics Products, Pittsburgh, Pa.) is an automated image analysis algorithm that provides detailed analysis of phenotypes related to apoptosis. As one of the most prominent characteristics of apoptotics cell a nucleus condensation takes place. This can be measured fluorescence signal intensity using a CCD camera on fully automated microscope system. The Cellomics system is able to quantify the fluorescence intensity per single nucleus and calculates the variation of signal intensity in each cell population. […] Additionally the number of detected cell decreases normally in apoptotic cell populations. In detail 5000 cell per 96 well were labeled with DNA intercalating dye (Hoechst 33342, Sigma, Steinheim, Germany) to visualize the nucleus in a fluorescence microscope under live conditions. The apoptosis assay was performed 24 h and 48 h after addition of compound at concentrations 12.5 μM, 6.25 μM, 3.125 μM, 1.56 μM, 0.78 μM, 0.39 μM as well as DMSO control for 48 h.

U118 = assay: Apoptosis assay (Cellomics, nucleus condensation); assay type: cell-based; settings: Table III, read-out: Apoptosis induction in U118
Description: as §1

SF126 = assay: Apoptosis assay (Cellomics, nucleus condensation); assay type: cell-based; settings: Homo sapiens, SF-126, Table III, read-out: Apoptosis induction in SF126
Description: as §1

U138 = assay: Apoptosis assay (Cellomics, nucleus condensation); assay type: cell-based; settings: Table III, read-out: Apoptosis induction in U138
Description: as §1

Hs578T [1] = assay: Apoptosis assay (Cellomics, nucleus condensation); assay type: cell-based; settings: Homo sapiens, Hs-578T, Table III, read-out: Apoptosis induction in Hs578T
Description: as §1

C8161 = assay: Apoptosis assay (Cellomics, nucleus condensation); assay type: cell-based; settings: Homo sapiens, Table III, read-out: Apoptosis induction in C8161
Description: as §1

Hs578T [2] = assay: Matrigel outgrowth assay/branching assay; assay type: cell-based; settings: Homo sapiens, Hs-578T; HS578T cell line; Table Ib; read-out: Total branching inhibition in Matrigel HS578T
In short: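 Step one: Matrigel (3 mg/ml) is set for 1 h at 37° C. Step two: 5000 cells per well go on in medium with compound (0.78–3.125 μM) or DMSO. Step three: images at 48, 72 and 96 h are scored for complete loss of branching.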

[3] = Homo sapiens, C8161 cells, read-out: Total branching inhibition in Matrigel C8161
[4] = Homo sapiens, Hs-578T, Hs578T cells, read-out: Total branching inhibition in Matrigel Hs578T
[5] = U118 cells, read-out: Total branching inhibition in Matrigel U118
[6] = U138 cells, read-out: Total branching inhibition in Matrigel U138
[7] = Homo sapiens, C8161 cells, read-out: IC50 Wound healing Assay C8161
[8] = SF763 cells, read-out: IC50 Wound healing Assay SF763
[9] = Homo sapiens, HCT-116, HCT116 def, read-out: percentage (%) of viable cells HCT 116def
[10] = Homo sapiens, HCT-116, HCT116 wt, read-out: percentage (%) of viable cells HCT 116wt
[11] = Homo sapiens, HT-29, HT29, read-out: percentage (%) of viable cells HT29
[12] = Homo sapiens, NCI-H358, H358, read-out: percentage (%) of viable cells H358
[13] = Homo sapiens, NCI-H1650, H1650, read-out: percentage (%) of viable cells H1650
[14] = Homo sapiens, NCI-H1666, H1666, read-out: percentage (%) of viable cells H1666
[15] = Homo sapiens, NCI-H1975, H1975, read-out: percentage (%) of viable cells H1975
[16] = Homo sapiens, NCI-H1993, H1993, read-out: percentage (%) of viable cells H1993
[17] = Homo sapiens, A549, read-out: percentage (%) of viable cells A549
[18] = Homo sapiens, HCC827, read-out: percentage (%) of viable cells HCC827
[19] = Homo sapiens, SW480, read-out: percentage (%) of viable cells SW480
[20] = RKO, read-out: percentage (%) of viable cells RKO

IC50 (tumor cell; [3]) [µM] | IC50 (tumor cell; [4]) [µM] | IC50 (tumor cell; [5]) [µM] | IC50 (tumor cell; [6]) [µM] | IC50 (indicated cell line; [7]) [µM] | IC50 (indicated cell line; [8]) [µM] | IC50 (cells) [µM] | IC50 (SF763) [µM] | SMILES | viability at 10 µM (viable cells in culture; [9]) [%] | viability at 10 µM (viable cells in culture; [10]) [%] | viability at 10 µM (viable cells in culture; [11]) [%] | viability at 10 µM (viable cells in culture; [12]) [%] | viability at 10 µM (viable cells in culture; [13]) [%] | viability at 10 µM (viable cells in culture; [14]) [%] | viability at 10 µM (viable cells in culture; [15]) [%] | viability at 10 µM (viable cells in culture; [16]) [%] | viability at 10 µM (viable cells in culture; [17]) [%] | viability at 10 µM (viable cells in culture; [18]) [%] | viability at 10 µM (viable cells in culture; [19]) [%] | viability at 10 µM (viable cells in culture; [20]) [%] | further results
≤ 5 | ≤ 5 | ≤ 5 | 5 to 50 | ≤ 12.5 | ≤ 12.5 | ≤ 5 | 12.5 to 50 | COc1cc2c(Oc3ccc(NS(=O)(=O)c4cc(F)ccc4F)cc3F)ccnc2cc1OCC1CCCNC1 (centres unmarked) [Example 80, 2,5-Difluoro-N-{3-fluoro-4-[6-methoxy-7-(piperidin-3-ylmethoxy)-quinolin-4-yloxy]-phenyl}-benzenesulfonamide] | 21 to 40 | 21 to 40 | 41 to 60 | 0 to 20 | > 60 | 21 to 40 | 0 to 20 | 0 to 20 | > 60 | 21 to 40 | 0 to 20 | 0 to 20 | IC50 (U118): ≤ 12.5 µM; IC50 (SF126): 12.5 to 50 µM; IC50 (U138): 12.5 to 50 µM; IC50 (Hs578T [1]): ≤ 12.5 µM; IC50 (C8161): 12.5 to 50 µM
≤ 5 | ≤ 5 | ≤ 5 | ≤ 5 | 12.5 to 50 | ≤ 12.5 | ≤ 5 | ≤ 12.5 | COc1cc2c(Oc3ccc(NS(=O)(=O)c4ccccc4C#N)cc3F)ccnc2cc1OCCCN1CCN(C)CC1 [Example 15, 2-Cyano-N-(3-fluoro-4-{6-methoxy-7-[3-(4-methyl-piperazin-1-yl)-propoxy]-quinolin-4-yloxy}-phenyl)-benzenesulfonamide] | > 60 | > 60 | 41 to 60 | 41 to 60 | 41 to 60 | 41 to 60 | 41 to 60 | 21 to 40 | > 60 | > 60 | 21 to 40 | 41 to 60 | IC50 (Hs578T [2]): ≤ 10 µM; melting point: 109 to 111 °C; IC50 (SF126): ≤ 12.5 µM; IC50 (U138): ≤ 12.5 µM; IC50 (Hs578T [1]): ≤ 12.5 µM; IC50 (C8161): ≤ 12.5 µM
≤ 5 | 5 to 50 | 5 to 50 | ≤ 5 | 12.5 to 50 | 12.5 to 50 | ≤ 5 | ≤ 12.5 | COc1cc2c(Oc3ccc(NS(=O)(=O)c4ccc(F)cc4F)cc3F)ccnc2cc1OCCCN1CCN(C)CC1 [Example 16, 2,4-Difluoro-N-(3-fluoro-4-{6-methoxy-7-[3-(4-methyl-piperazin-1-yl)-propoxy]-quinolin-4-yloxy}-phenyl)-benzenesulfonamide] | 41 to 60 | 41 to 60 | 21 to 40 | 0 to 20 | 21 to 40 | 41 to 60 | 0 to 20 | 21 to 40 | 41 to 60 | 41 to 60 | 0 to 20 | 21 to 40 | melting point: 99 to 102 °C; IC50 (SF126): ≤ 12.5 µM; IC50 (U138): ≤ 12.5 µM; IC50 (Hs578T [1]): ≤ 12.5 µM; IC50 (C8161): ≤ 12.5 µM
≤ 5 | 5 to 50 | ≤ 5 | 5 to 50 | 12.5 to 50 | 12.5 to 50 | ≤ 5 | ≤ 12.5 | CCN(CC)CCCOc1cc2nccc(Oc3ccc(NS(=O)(=O)c4ccccc4C(F)(F)F)cc3F)c2cc1OC [Example 101, N-{4-[7-(3-Diethylamino-propoxy)-6-methoxy-quinolin-4-yloxy]-3-fluoro-phenyl}-2-trifluoromethyl-benzenesulfonamide] | 21 to 40 | 21 to 40 | 0 to 20 | 0 to 20 | 41 to 60 | 41 to 60 | 41 to 60 | 21 to 40 | 41 to 60 | 21 to 40 | 0 to 20 | 0 to 20 | IC50 (Hs578T [2]): 10 to 25 µM; IC50 (SF126): 12.5 to 50 µM; IC50 (U138): ≤ 12.5 µM; IC50 (Hs578T [1]): ≤ 12.5 µM; IC50 (C8161): ≤ 12.5 µM
